We go through six compounds from patent publication US20060271062A1 (priority 2005, published 2006).

One data set concerns lens epithelial cell. Particulars: in vitro; cited from earlier work.
For data set [1], the system named is residual lens epithelial cells. The format is cell-based, human.
The subject of another data set is trabecular meshwork. Particulars: cited from earlier work.
Data set [2] concerns lens epithelial cells. The data set is classed as cell-based, human.
In data set [3] the test system is lens epithelial cells. Particulars: rabbit, in vivo.
Data set [4] relates to residual lens epithelial cells. Particulars: rabbit, in vivo.
The subject of data set [5] is lens, lens capsule or corneal endothelium and other adjacent tissues. Particulars: outflow facility-effective concentrations, infusion for 45-90 min; cited from earlier work.
The subject of data set [6] is residual lens epithelial cells. Put plainly: Intracapsular latrunculin-B during extracapsular lens extraction in rabbits (Example 1). Particulars: 2 μM. The format is in vivo, rabbit.
Where [7] appears, read: 1 ml intracapsular for 10 minutes then 5 min irrigation/aspiration, vehicle 0.25% DMSO, light microscopy of fixed capsular bag.

Like-named read-outs stand apart in the source and are kept apart here.

In the case of `O=c1[nH]cc(F)c(=O)[nH]1` [5-fluorouracil], the “Inhibiting lens epithelial cell proliferation” value in the data set on lens epithelial cell is given as “effective”.
As to `CC1CNCCN1S(=O)(=O)c1cccc2cnccc12` (stereo not drawn) [H-7, 1-(5-isoquinolinyl-sulfonyl)-2-methylpiperazine], the “Lens epithelial cells removed in comparison to control vehicle, determined by LM” value in data set [1] and in data set [4] was “more lens epithelial cells be removed” each time. Further, the Outflow facility result in the data set on trabecular meshwork (monkey, in vivo) is on record as “significantly increased”. For the same compound, the “PCO formation or severity in comparison to control vehicle” value in the data set on lens epithelial cells [2] and in the data set with lens epithelial cells [3] was “prevent the formation or reduce the severity of PCO” throughout.
For `COc1cc2c(c(OC)c1OC)-c1ccc(OC)c(=O)cc1[C@@H](NC(C)=O)CC2` [colchicine], the “Inhibiting lens epithelial cell proliferation” value in the data set on lens epithelial cell is listed as “effective”.
Consider `COc1cccc2c1C(=O)c1c(O)c3c(c(O)c1C2=O)C[C@@](O)(C(C)=O)C[C@@H]3O[C@H]1C[C@H](N)[C@H](O)[C@H](C)O1` [daunomycin], for which the “Inhibiting lens epithelial cell proliferation” value in the data set with lens epithelial cell is given as “effective”.
For `C/C1=C/C(=O)O[C@@H]2C[C@@H](CC[C@H](C)/C=C\CC1)O[C@@](O)([C@@H]1CSC(=O)N1)C2` [latrunculin-B], the “Lens epithelial cells removed in comparison to control vehicle, determined by LM” value in data set [1] and in data set [4] was “more lens epithelial cells be removed” each time. In addition, the Outflow facility result in the data set on trabecular meshwork (living monkeys, all concentrations named in b65 (latrunculin-B 0.5-2 μM, 0.01% topical; H-7 100-300 μM, 5% topical)) is given as “significantly increased”. For the same compound, the “Observable damage to the lens, lens capsule or corneal endothelium and other adjacent tissues” value in data set [5] is recorded as “did not induce any observable damage”. Also, the “PCO formation or severity in comparison to control vehicle” value in the data set with lens epithelial cells [2] and with lens epithelial cells [3] was “prevent the formation or reduce the severity of PCO” each time. Moreover, in data set [6], the “Clearance of residual lens epithelial cells during the extracapsular lens extraction” value is given as “facilitated the clearance”. Besides, the “Area A (dirty area with dense residual materials): treated eye versus vehicle-treated eye” value in data set [6] (setting [7]) is reported as “no difference”. Moreover, the “Area B (relatively clean area): residual lens epithelial cells versus vehicle-treated eye” value in data set [6] (setting [7]) is listed as “fewer residual lens epithelial cells”.
For `CO[C@@]12[C@H](COC(N)=O)C3=C(C(=O)C(C)=C(N)C3=O)N1C[C@@H]1N[C@@H]12` [mitomycin C], the “Inhibiting lens epithelial cell proliferation” value in the data set on lens epithelial cell is recorded as “effective”.
